{"source": "patent US20220184071A1", "about": "“GEPOTIDACIN FOR USE IN THE TREATMENT OF BACTERIAL URINARY TRACT INFECTIONS” (GlaxoSmithKline Intellectual Property Development Limited, priority 2019, published 2022)", "key": {"[1]": {"test_system": "Klebsiella (Klebsiella oxytoca, Klebsiella variicola, Klebsiella pneumoniae)", "assay": "MIC by CLSI agar dilution, Example 1 Method 2", "assay_type": "cell-based", "settings": "n = 55", "method": "(§1) Antimicrobial activity was determined in a second study by […] using the CLSI recommended procedure in serial two-fold dilutions and the minimum inhibitory concentration (MIC) was determined as the lowest concentration of the compound that inhibited visible growth.\n(§2) MICs were determined according to CLSI agar dilution guidelines."}, "[2]": {"test_system": "Enterobacter (Enterobacter aerogenes, Enterobacter cloacae complex)", "assay": "MIC by CLSI agar dilution, Example 1 Method 2", "assay_type": "cell-based", "settings": "n = 55", "method": "as §1, §2"}, "[3]": {"test_system": "Shigella sonnei", "assay": "MIC by CLSI agar dilution, Example 1 Method 2", "assay_type": "cell-based", "settings": "n=64", "method": "as §1, §2"}, "[4]": {"test_system": "Proteus (Proteus mirabilis, Proteus penneri, Proteus hauseri)", "assay": "MIC by CLSI agar dilution, Example 1 Method 2", "assay_type": "cell-based", "settings": "n = 56", "method": "as §1, §2"}, "[5]": {"test_system": "Shigella flexneri", "assay": "MIC by CLSI agar dilution, Example 1 Method 2", "assay_type": "cell-based", "settings": "n=24", "method": "as §1, §2"}, "[6]": {"test_system": "Shigella", "assay": "MIC by CLSI agar dilution, Example 1 Method 2", "assay_type": "cell-based", "method": "as §1, §2"}, "[7]": {"test_system": "Shigella boydii", "assay": "MIC by CLSI agar dilution, Example 1 Method 2", "assay_type": "cell-based", "settings": "n=3", "method": "as §1, §2"}, "[8]": {"test_system": "Prevotella melaninogenica", "assay": "MIC by agar dilution, drug-resistant isolates", "assay_type": "cell-based", "settings": "1 isolate", "method": "(§3) Antimicrobial activity was determined by agar dilution using the Clinical and Laboratory Standards Institute (CLSI) recommended procedure.\n(§4) The compounds were tested in serial two-fold dilutions and the minimum inhibitory concentration (MIC) was determined as the lowest concentration of the compound that inhibited visible growth. Gepotidacin was tested against 333 gram-negative anaerobic and 203 gram-positive anaerobic isolates collected from clinical samples in North America and Europe from 2000 to 2017; the majority collected from 2013 to 2016.\n(§5) Additional analysis was performed from the results of the study described in Method 1 above, to determine the in vitro activity of gepotidacin against gram-negative and gram-positive anaerobic organisms with resistance to ceftriaxone, clindamycin, imipenem, metronidazole, moxifloxacin and piperacillin/tazobactam."}, "[9]": {"test_system": "Prevotella buccae", "assay": "MIC by agar dilution, drug-resistant isolates", "assay_type": "cell-based", "settings": "4 isolates", "method": "as §3, §4, §5"}, "[10]": {"test_system": "Eubacterium nodatum", "assay": "MIC by agar dilution, drug-resistant isolates", "assay_type": "cell-based", "settings": "metronidazole R; 1 isolate", "method": "as §3, §4, §5"}, "[11]": {"test_system": "Prevotella bivia", "assay": "MIC by agar dilution, drug-resistant isolates", "assay_type": "cell-based", "method": "as §3, §4, §5"}, "[12]": {"test_system": "Bacteroides caccae", "assay": "MIC by agar dilution, drug-resistant isolates", "assay_type": "cell-based", "method": "as §3, §4, §5"}, "[13]": {"test_system": "Porphyromonas levii", "assay": "MIC by agar dilution, drug-resistant isolates", "assay_type": "cell-based", "settings": "metronidazole R; 1 isolate", "method": "as §3, §4, §5"}, "[14]": {"test_system": "Lactobacillus rhamnosus", "assay": "MIC by agar dilution, drug-resistant isolates", "assay_type": "cell-based", "settings": "imipenem R; 18 isolates", "method": "as §3, §4, §5"}, "[15]": {"test_system": "Bacteroides thetaiotaomicron", "assay": "MIC by agar dilution, drug-resistant isolates", "assay_type": "cell-based", "method": "as §3, §4, §5"}, "[16]": {"test_system": "Fusobacterium necrophorum", "assay": "MIC by agar dilution, drug-resistant isolates", "assay_type": "cell-based", "settings": "clindamycin R; 1 isolate", "method": "as §3, §4, §5"}, "[17]": {"test_system": "Porphyromonas, non-speciated", "assay": "MIC by agar dilution, drug-resistant isolates", "assay_type": "cell-based", "settings": "1 isolate", "method": "as §3, §4, §5"}, "[18]": {"test_system": "E. coli ALL", "assay": "Neutropenic mouse kidney infection (pyelonephritis/UTI) model PK/PD", "assay_type": "in vivo", "settings": "Strain ALL", "method": "PK and PD studies using gepotidacin were conducted in murine (male CD-1 mice) thigh and kidney infections. The administered doses ranged from 1 to 200 mg/kg SC every 6 hours starting 1h post infection. Infected tissues were evaluated for bacterial burden at 24 h post infection (baseline controls at 1 h post infection).\nEfficacy was determined against E. coli ALL, 997577, ATCC25922, IR5 and NCTC13441 (MICs of 1 to 4 μg/mL) in thigh-infected neutropenic (I−) mice and against E. coli ALL in kidney-infected immunocompetent (I+) and I− mice. The PopPK model was used to determine GEP exposures associated with efficacy. PK-PD analyses were conducted using Phoenix WinNonLin 6.3 (Pharsight). The change in login colony forming units (CFU) from baseline were correlated with free drug (f) AUC:MIC using an inhibitory model from the Phoenix library, and model parameter values for each isolate were used to calculate the plasma fAUC:MIC associated with stasis, 1- or 2-login reductions in CFU.\nPD studies were conducted using thigh and/or kidney infection models in neutropenic or competent mice (N=5/group). Mice were infected with a bacterial suspension in log phase: 100 μL in the left thigh muscle or 50 μL in each of both kidneys (100 μl total). Final inocula across all isolates were 6.0 to 7.0 login CFU/mouse. Dose-ranging studies were conducted with 5 isolates (see Table 1). Starting 1 hr after infection, GEP was given SC (0.2 mL/mouse) at discrete doses of 1-200 mg/kg every 6 hours (q6) for a 24-hour period (4 doses in total). Mice were euthanized 24 hr after start of therapy (6 hr after the last dose), and infected thighs or kidneys were processed to determine viable bacterial counts (CFU). Baseline CFU were obtained from untreated mice at 1 hr post infection and growth control CFU from saline-treated mice at 24 hr.\nNCA analyses were conducted with the simulated data. […]"}}}
{"smiles": "O=c1ccc2ncc(=O)n3c2n1C[C@H]3CN1CCC(NCc2cc3c(cn2)OCCC3)CC1", "note": "[gepotidacin, (2R)-2-({4-[(3,4-dihydro-2H-pyrano[2,3-c]pyridin-6-ylmethyl)amino]-1-piperidinyl}methyl)-1,2-dihydro-3H,8H-2a,5,8a-triazaacenaphthylene-3,8-dione]", "values": [{"measurement": "MIC50", "setting": "[1]", "value": 16, "unit": "µg/mL"}, {"measurement": "MIC90", "setting": "[1]", "value": 64, "unit": "µg/mL"}, {"measurement": "Number of Isolates at Gepotidacin MIC 1 mg/L", "setting": "[1]", "value": 1}, {"measurement": "Number of Isolates at Gepotidacin MIC 4 mg/L", "setting": "[1]", "value": 6}, {"measurement": "Number of Isolates at Gepotidacin MIC 8 mg/L", "setting": "[1]", "value": 14}, {"measurement": "Number of Isolates at Gepotidacin MIC ≥16 mg/L", "setting": "[1]", "value": 34}, {"measurement": "MIC50", "setting": "[2]", "value": 16, "unit": "µg/mL"}, {"measurement": "MIC90", "setting": "[2]", "value": 32, "unit": "µg/mL"}, {"measurement": "Number of Isolates at Gepotidacin MIC 2 mg/L", "setting": "[2]", "value": 3}, {"measurement": "Number of Isolates at Gepotidacin MIC 4 mg/L", "setting": "[2]", "value": 12}, {"measurement": "Number of Isolates at Gepotidacin MIC 8 mg/L", "setting": "[2]", "value": 7}, {"measurement": "Number of Isolates at Gepotidacin MIC ≤0.25 mg/L", "setting": "[2]", "value": 1}, {"measurement": "Number of Isolates at Gepotidacin MIC ≥16 mg/L", "setting": "[2]", "value": 32}, {"measurement": "MIC90", "setting": "[3]", "value": 2, "unit": "µg/mL"}, {"measurement": "MIC50", "setting": "[4]", "value": 8, "unit": "µg/mL"}, {"measurement": "MIC90", "setting": "[4]", "value": 32, "unit": "µg/mL"}, {"measurement": "Number of Isolates at Gepotidacin MIC 0.5 mg/L", "setting": "[4]", "value": 3}, {"measurement": "Number of Isolates at Gepotidacin MIC 1 mg/L", "setting": "[4]", "value": 4}, {"measurement": "Number of Isolates at Gepotidacin MIC 2 mg/L", "setting": "[4]", "value": 11}, {"measurement": "Number of Isolates at Gepotidacin MIC 4 mg/L", "setting": "[4]", "value": 9}, {"measurement": "Number of Isolates at Gepotidacin MIC 8 mg/L", "setting": "[4]", "value": 10}, {"measurement": "Number of Isolates at Gepotidacin MIC ≥16 mg/L", "setting": "[4]", "value": 19}, {"measurement": "MIC90", "setting": "[5]", "value": 2, "unit": "µg/mL"}, {"measurement": "% of the tested isolates inhibited at ≤2 mg/L", "setting": "[6]; 91 isolates", "value": 95.6, "unit": "%"}, {"measurement": "% of the tested isolates inhibited at ≤8 mg/L", "setting": "[6]; 91 isolates", "value": 100, "unit": "%"}, {"measurement": "MICs ranged", "setting": "[6]; 91 isolates", "value": "0.125 to 8", "unit": "mg/L"}, {"measurement": "MIC50", "setting": "[6]; Shigella, n = 91", "value": 1, "unit": "µg/mL"}, {"measurement": "MIC90", "setting": "[6]; Shigella, n = 91", "value": 2, "unit": "µg/mL"}, {"measurement": "Number of Isolates at Gepotidacin MIC 0.5 mg/L", "setting": "[6]; n = 91", "value": 18}, {"measurement": "Number of Isolates at Gepotidacin MIC 1 mg/L", "setting": "[6]; n = 91", "value": 36}, {"measurement": "Number of Isolates at Gepotidacin MIC 2 mg/L", "setting": "[6]; n = 91", "value": 19}, {"measurement": "Number of Isolates at Gepotidacin MIC 4 mg/L", "setting": "[6]; n = 91", "value": 3}, {"measurement": "Number of Isolates at Gepotidacin MIC 8 mg/L", "setting": "[6]; n = 91", "value": 1}, {"measurement": "Number of Isolates at Gepotidacin MIC ≤0.25 mg/L", "setting": "[6]; n = 91", "value": 14}, {"measurement": "Effect of levofloxacin non-susceptibility or QRDR substitutions in GyrA and ParC on activity", "setting": "[6]; where data was available", "value": "unaffected"}, {"measurement": "MIC", "setting": "[7]", "value": 2, "unit": "µg/mL"}, {"measurement": "Gepotidacin MIC range", "setting": "[8]; ceftriaxone R", "value": 0.25, "unit": "µg/mL"}, {"measurement": "Gepotidacin MIC range", "setting": "[8]; clindamycin R", "value": 0.25, "unit": "µg/mL"}, {"measurement": "Gepotidacin MIC range", "setting": "[9]; ceftriaxone R", "value": "0.25 to 2", "unit": "µg/mL"}, {"measurement": "Gepotidacin MIC range", "setting": "[9]; clindamycin R", "value": "0.25 to 4", "unit": "µg/mL"}, {"measurement": "Gepotidacin MIC range", "setting": "[10]", "value": 0.125, "unit": "µg/mL"}, {"measurement": "Gepotidacin MIC range", "setting": "[11]; ceftriaxone R, 1 isolate", "value": 1, "unit": "µg/mL"}, {"measurement": "Gepotidacin MIC range", "setting": "[11]; clindamycin R, 2 isolates", "value": "0.5 to 4", "unit": "µg/mL"}, {"measurement": "Gepotidacin MIC range", "setting": "[11]; moxifloxacin R, 2 isolates", "value": 4, "unit": "µg/mL"}, {"measurement": "MIC", "setting": "[12]; Bacteroides caccae, 1 drug-resistant isolate", "value": 8, "unit": "µg/mL"}, {"measurement": "Gepotidacin MIC range", "setting": "[12]; ceftriaxone R, 2 isolates", "value": "0.05 to 8", "unit": "µg/mL"}, {"measurement": "Gepotidacin MIC range", "setting": "[12]; clindamycin R, 1 isolate", "value": 8, "unit": "µg/mL"}, {"measurement": "Gepotidacin MIC range", "setting": "[12]; moxifloxacin R, 1 isolate", "value": 0.5, "unit": "µg/mL"}, {"measurement": "Gepotidacin MIC range", "setting": "[13]", "value": "≤0.015", "unit": "µg/mL"}, {"measurement": "Gepotidacin MIC range", "setting": "[14]", "value": "0.06 to 1", "unit": "µg/mL"}, {"measurement": "Gepotidacin MIC range", "setting": "[15]; ceftriaxone R, 43 isolates", "value": "0.5 to 16", "unit": "µg/mL"}, {"measurement": "Gepotidacin MIC range", "setting": "[15]; clindamycin R, 21 isolates", "value": "0.5 to 8", "unit": "µg/mL"}, {"measurement": "Gepotidacin MIC range", "setting": "[15]; moxifloxacin R, 6 isolates", "value": "0.5 to 8", "unit": "µg/mL"}, {"measurement": "Gepotidacin MIC range", "setting": "[16]", "value": 0.25, "unit": "µg/mL"}, {"measurement": "Gepotidacin MIC range", "setting": "[17]; ceftriaxone R", "value": 0.125, "unit": "µg/mL"}, {"measurement": "Gepotidacin MIC range", "setting": "[17]; clindamycin R", "value": 0.06, "unit": "µg/mL"}, {"measurement": "Gepotidacin MIC range", "setting": "[17]; imipenem R", "value": 0.125, "unit": "µg/mL"}, {"measurement": "Daily fAUC/MIC for 1-log Drop", "setting": "[18]", "value": 8.7}, {"measurement": "Daily fAUC/MIC for 2-log Drop", "setting": "[18]", "value": 15.6}, {"measurement": "Daily fAUC/MIC for Stasis", "setting": "[18]", "value": 4.3}]}
